{"source": "patent US20190015423A1", "about": "“REGULATION OF GENE EXPRESSION BY MODULATING PRIMARY CILIA LENGTH” (THE TRUSTEES OF COLUMBIA UNIVERSITY IN THE CITY OF NEW YORK, priority 2016, published 2019)", "note": "Structures can show the parent of a compound that is named as a salt.", "data": [{"system": "MLO-Y4 osteocytes", "assay": "High-throughput drug screening of primary cilia length and incidence", "assay_type": "cell-based", "conditions": "10 μM, 16 hours, triplicate; normalized to vehicle control; standard deviation away from the population average", "experimental": "MLO-Y4 osteocytes were maintained on collagen I-coated dishes in MEMα (Life_Technologies) supplemented with 5% fetal bovine serum (FBS), 5% calf serum (CS), and 1% penicillin/streptomycin (P/S) at 37° C. and 5% CO2. Osteocytes were then seeded onto 384-well collagen-coated plates for 72 hours before fixation. […] These libraries include Tocris, Sigma LOPAC, Selleck Chemical, Prestwick, and Spectrum commercially available compound libraries. All cell seeding and plate handling was performed with the Perkin Elmer cell:explorer workstation.\nCells were fixed in 4% paraformaldehyde and permeabilized with 0.1% Triton-X 100 (Sigma). 10% goat serum (vendor) was used for blocking. Cilia were stained using a monoclonal antibody against acetylated α-tubulin (1:20) from a C3B9 hybridoma cell line, and visualized with A F488 (1:1000, ThermoFisher). Nuclei were visualized with Hoechst. Cells were imaged using a GE INCell 2000 high-throughput imager at 40× magnification. 4 fields of view were taken per well.\nEach pair of nuclei and cilia images was first analyzed individually, then the entire population was examined to evaluate each compound's effect on cilia length and incidence. A custom MATLAB script was developed to perform all image analysis. This script first utilizes an enhanced implementation of a watershed transform, which is a segmentation tool which enables detection of similarly shaped overlapping particles in noisy images by the procedural whittling down of pixels found close to the edge of such particles. The augmentation of the algorithm incorporates thresholding for noise removal based on signal intensity and object size, nuclei dilation to exclude non-cellular artifacts, as well as skeletonization of cilia to quantify length. The results of the analysis are number of nuclei, number of cilia, and average cilia length in each image.\nCompounds were selected based on deviation from the population mean. Each well was normalized to vehicle control images on each plate, allowing the establishment of a normalized population mean. Hits were chosen based on compounds whose triplicate mean was furthest (based on standard deviation away) from the population mean. […] Compounds were classified based on mechanism of action.\nTo identify compounds that modulate primary cilia formation a high-throughput platform was developed to automate cell culture, staining, imaging, and analysis, as shown in schematic form in FIG. 18. […] Cells were cultured on 384-well plates, and treated with small molecules with known biologic activity, enabling classification of mechanisms of action. Drug treatment was applied for 16 hours at 10 μM concentration, performed in triplicate, before fixation and immunostaining of primary cilia. Cells were then imaged using the GE INCell 2000 High Content Analyzer, capturing 4 fields of view per well at 40× magnification. Additionally, each plate contains 8 wells of DMSO vehicle control.\nA MATLAB script was developed to detect and analyze changes in ciliogenesis. […] A representative exemplary image (FIG. 19A) is cropped to better display features, scale bar represents 30 μm. A custom MATLAB script was used to identify nuclei and cilia for analysis (FIG. 19B). […] Objects are further filtered based on size and signal intensity.\nCilia length and incidence for each field of view were normalized to vehicle control on that individual plate. This allowed development of a normalized population average and standard deviation. […] To control for toxic effects only small molecules with at least 40% viability, based on number of nuclei versus control, were selected as hits. Furthermore, compounds repeated between multiple libraries eliciting the same effect on cilia length or incidence were excluded, such that only one of the repeated compounds was selected as a hit.", "units": {"Average Incidence SD Away": "SD", "Average Length SD Away": "SD"}, "values": [{"smiles": "CC[C@]1(O)C[C@@H]2CN(CCc3c([nH]c4ccccc34)[C@@](C(=O)OC)(c3cc4c(cc3OC)N(C)[C@H]3[C@@](O)(C(=O)OC)[C@H](OC(C)=O)[C@]5(CC)C=CCN6CC[C@]43[C@@H]65)C2)C1", "note": "[Vinblastine]", "Average Incidence SD Away": 3.124, "Average Length SD Away": 1.771}, {"smiles": "CC(NC(C)(C)C)C(=O)c1cccc(Cl)c1", "note": "(stereo not drawn) [Amfebutamone (Bupropion), Amfebutamone]", "Average Incidence SD Away": 1.605}, {"smiles": "CC[C@@]1(O)C(=O)OCc2c1cc1n(c2=O)Cc2cc3cc(O)ccc3nc2-1", "note": "[10-HYDROXYCAMPTOTHECIN]", "Average Length SD Away": 2.11}, {"smiles": "COc1ccc2c(c1OC)OC[C@@H](c1ccc(OC)c(OC)c1OC)C2", "note": "[DUARTIN DIMETHYL ETHER]", "Average Length SD Away": 2.07}, {"smiles": "O=C(/C=C/c1ccccc1)c1ccc(O[C@@H]2O[C@H](CO)[C@@H](O)[C@H](O)[C@H]2O)cc1O", "note": "[2 4 -DIHYDROXYCHALCONE 4 -GLUCOSIDE]", "Average Length SD Away": 1.598}, {"smiles": "CN1C(=O)COc2c(C(=O)NC3CN4CCC3CC4)cc(Cl)cc21", "note": "(stereo not drawn) [Azasetron HCl]", "Average Incidence SD Away": 1.653}, {"smiles": "O=C1c2ccccc2C(=O)C1c1ccccc1", "note": "[Phenindione (Rectadione), Phenindione]", "Average Incidence SD Away": 1.688}, {"smiles": "COC(=O)Nc1nc2ccc([S+]([O-])c3ccccc3)cc2[nH]1", "note": "(stereo not drawn) [Oxfendazole]", "Average Incidence SD Away": 2.268, "Average Length SD Away": 1.574}, {"smiles": "CCOC(=O)N1CCC(=C2c3ccc(Cl)cc3CCc3cccnc32)CC1", "note": "[Loratidine]", "Average Length SD Away": 2.261}, {"smiles": "CCOC(=O)C1=C(C)NC(C)=C(C(=O)OC)C1c1cccc([N+](=O)[O-])c1", "note": "(stereo not drawn) [Nitrendipine]", "Average Incidence SD Away": 1.542}, {"smiles": "CC(=O)Nc1ccccc1", "note": "[Acetanilide (Antifebrin), Acetanilide]", "Average Incidence SD Away": 1.696}, {"smiles": "CCc1c2c(nc3ccc(OC(=O)N4CCC(N5CCCCC5)CC4)cc13)-c1cc3c(c(=O)n1C2)COC(=O)[C@]3(O)CC", "note": "[Irinotecan]", "Average Incidence SD Away": 1.681, "Average Length SD Away": 1.658}, {"smiles": "CC(=O)O[C@H]1CC[C@@]2(C)[C@@H](CC[C@@H]3[C@@H]2CC(=O)[C@]2(C)[C@@H]4[C@H](C[C@@H]32)O[C@]2(CC[C@@H](C)CO2)[C@H]4C)C1", "note": "[HECOGENIN ACETATE]", "Average Length SD Away": 2.21}, {"smiles": "S=c1nc[nH]c2nc[nH]c12", "note": "[MERCAPTOPURINE]", "Average Length SD Away": 1.722}, {"smiles": "CC(C)c1nc(N(C)S(C)(=O)=O)nc(-c2ccc(F)cc2)c1/C=C/[C@@H](O)C[C@@H](O)CC(=O)O", "note": "[Rosuvastatin calcium (Crestor), Rosuvastatin calcium]", "Average Incidence SD Away": 1.644}, {"smiles": "Fc1ccc(-c2nc3n(c2-c2ccncc2)CCS3)cc1", "note": "[SKF 86002 dihydrochloride]", "Average Length SD Away": 1.549}, {"smiles": "CCC[S+]([O-])c1ccc2[nH]c(NC(=O)OC)nc2c1", "note": "(stereo not drawn) [Albendazole Oxide (Ricobendazole), Albendazole Oxide]", "Average Incidence SD Away": 2.017}, {"smiles": "Nc1nc2[nH]cc(CCc3ccc(C(=O)N[C@@H](CCC(=O)O)C(=O)O)cc3)c2c(=O)[nH]1", "note": "[Pemetrexed]", "Average Incidence SD Away": 2.083, "Average Length SD Away": 2.765}, {"smiles": "CN1[C@@H]2CC[C@H]1C[C@@H](OC(=O)C(CO)c1ccccc1)C2", "note": "(stereo partly drawn) [Atropine]", "Average Incidence SD Away": 1.694}, {"smiles": "CC(=O)C(=Cc1ccccc1)CC(=O)O", "note": "[LEVULINIC ACID 3-BENZYLIDENYL-]", "Average Length SD Away": 2.3613}, {"smiles": "N#C/C(=C\\c1ccc(O)c(O)c1)C(=O)Nc1ccccc1", "note": "[AG 494]", "Average Length SD Away": 1.575}, {"smiles": "O=C[C@H](O)[C@@H](O)[C@H](O)[C@H](O)CO", "note": "[Dextrose (D-glucose), D-glucose]", "Average Incidence SD Away": 1.518}, {"smiles": "O=C1NC(=O)c2c1c1c3ccccc3[nH]c1c1[nH]c3ccccc3c21", "note": "[Arcyriaflavin A]", "Average Incidence SD Away": 1.892}]}]}
